According to US8772499B2, “TRPV3 modulators” (AbbVie Inc., priority 2011, dated 2014):
pIC50: −log10 of the molar value. Where two headings read alike, the source gives them in different places.

What was measured:
[1] = In vitro human microsomal stability assay; assay type: in vitro ADME; details: human, microsomes, 0.5 h, 0.5 μM, pH 7.4
Protocol: (§1) Test compounds were evaluated for metabolic stability in an in vitro rat microsomal stability assay using rat liver microsomes (Sprague-Dawley, from BD Biosciences) and/or an in vitro human microsomal stability assay using human liver microsomes (Xenotech). […] Incubations were carried out at 37° C. with a final incubation volume of 135 μL. […] A 1.5 μL aliquot of reduced nicotine adenine disphosphonucleotide (NADPH) (Chem-Impex Int'L Inc., Lot 12532024) was also added to the time-zero plates.

[2] = In vitro rat microsomal stability assay; assay type: in vitro ADME, rat (Sprague-Dawley); details: Sprague-Dawley, rat, microsomes, 0.5 h, 0.5 μM, pH 7.4
Protocol: as §1

human TRPV3 = target: T1, human TRPV3 (Homo sapiens, UniProt Q8NET8); test: In vitro antagonism of recombinant human TRPV3 activation (FLIPR Tetra calcium assay); assay type: cell-based; details: HEK293 cells stably expressing human TRPV3, agonist 2-APB at 80 μM
T1 construct: expressed in transfected cells
T1 sequence (Q8NET8 1-790): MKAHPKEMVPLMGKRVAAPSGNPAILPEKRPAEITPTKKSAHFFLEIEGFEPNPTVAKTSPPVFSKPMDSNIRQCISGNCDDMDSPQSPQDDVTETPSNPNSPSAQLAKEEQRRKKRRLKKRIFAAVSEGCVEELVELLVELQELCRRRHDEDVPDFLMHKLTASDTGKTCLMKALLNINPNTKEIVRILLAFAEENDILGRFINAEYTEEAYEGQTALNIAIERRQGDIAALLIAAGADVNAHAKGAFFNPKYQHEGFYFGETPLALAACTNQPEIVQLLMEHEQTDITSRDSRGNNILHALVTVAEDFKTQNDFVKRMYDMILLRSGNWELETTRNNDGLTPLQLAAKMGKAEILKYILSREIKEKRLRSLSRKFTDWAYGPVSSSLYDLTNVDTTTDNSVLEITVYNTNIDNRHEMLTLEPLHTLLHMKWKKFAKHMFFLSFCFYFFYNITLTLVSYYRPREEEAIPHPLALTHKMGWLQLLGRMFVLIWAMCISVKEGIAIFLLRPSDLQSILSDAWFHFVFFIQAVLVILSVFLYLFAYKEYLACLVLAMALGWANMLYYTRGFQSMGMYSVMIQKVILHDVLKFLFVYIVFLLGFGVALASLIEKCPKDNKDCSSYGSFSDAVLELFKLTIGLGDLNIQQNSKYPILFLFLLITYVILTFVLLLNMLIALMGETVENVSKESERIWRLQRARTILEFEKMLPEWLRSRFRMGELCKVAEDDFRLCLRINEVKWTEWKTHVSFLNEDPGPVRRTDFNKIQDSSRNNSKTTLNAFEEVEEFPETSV
Protocol: Test compounds were evaluated for ability to antagonize the activation of recombinant human TRPV3 using FLIPR® Tetra cellular screening. Specifically, on the day prior to the experiment recombinant HEK293 cells that stably express human TRPV3 were removed from tissue culture flasks and plated in growth medium at 20,000 cells/well into Poly-d-lysine coated black/clear 384-well Plate (Corning, 3845) using a Multidrop® dispenser (ThermoScientific, Waltham, Mass.). Prior to the start of the assay, the medium was removed by aspiration, and cells were loaded with 30 μL no-wash FLIPR® Calcium-4 dye (λEX=470-495 nm, λEM=515-575 nm; Molecular Devices, Sunnyvale, Calif.). The cells were then incubated for 90-120 minutes in the dark prior to addition of the test compound.
A double-addition protocol was used. The test compound (i.e., the TRPV3 antagonist) was added at the 10 second time point, followed by the addition of a TRPV3 agonist three minutes later. Each test compound evaluated was first dissolved in DMSO to prepare a 10 mM stock solution. A solution (5×) of the test compound was then prepared in DPBS (Dulbecco's Phosphate Buffered Saline) and 10 μl, of that solution was added to the cells at a delivery rate of 40 μL/sec. The TRPV3 agonist used to activate human TRPV3 expressed by the […] was 2-aminoethoxy-diphenyl borate (2-APB; Tocris Cookson, Ellisville, Mo.) at 80 μM. Final assay volume was 50 μl, Total length of an experimental run was 10 minutes.
Changes in fluorescence were measured over time using the FLIPR® instrument. The intensity of the fluorescence was captured and digitally transferred to an interfaced computer. The maximum response minus minimum response was calculated and expressed as the percentage of the maximum 2-APB response in the absence of antagonist. The concentration of 2-APB corresponds to its EC80.
Table 1 reports the IC50 values measured for the test compounds as human TRPV3 antagonists. […] Actual measured values are shown parenthetically after the reported range. In most cases, the values reported are average values from at least two runs (i.e., n≧2).

[3] = actual measured value shown parenthetically, in most cases average of at least two runs, read-out: IC50
[4] = reported range, read-out: IC50 (range class)

Row | Compound | HUMAN MICROSOMAL STABILITY (% REMAINING AFTER 30 MINUTES) [1] | RAT MICROSOMAL STABILITY (% REMAINING AFTER 30 MINUTES) [2] | pIC50 (human TRPV3; [3]) | pIC50 (human TRPV3; [4])
1 | OC(c1ccccn1)C1(c2ccc(C(F)(F)F)cc2)CCCO1 (single isomer, unassigned) [Example 88, (anti)-pyridin-2-yl{2-[4-(trifluoromethyl)phenyl]tetrahydrofuran-2-yl}methanol] | 38% | 7.0% | 6.43 | –
2 | OC(c1ccccn1)C1(c2ccc(C(F)(F)F)cc2)CCCO1 (single isomer, unassigned) [Example 89, (syn)-pyridin-2-yl{2-[4-(trifluoromethyl)phenyl]tetrahydrofuran-2-yl}methanol] | 70% | 4.3% | 5.70 | –
3 | OC(c1ccccn1)C1(c2cccc(OC(F)(F)F)c2)CCCO1 (single isomer, unassigned) [Example 92, (anti)-pyridin-2-yl{2-[3-(trifluoromethoxy)phenyl]tetrahydrofuran-2-yl}methanol] | 2.7% | 0.23% | 7.00 | –
4 | OC(c1ccccn1)C1(c2cccc(OC(F)(F)F)c2)CCCO1 (single isomer, unassigned) [Example 93, (syn)-pyridin-2-yl{2-[3-(trifluoromethoxy)phenyl]tetrahydrofuran-2-yl}methanol] | 12% | 0.33% | 6.23 | –
5 | OC(c1ccccn1)C1(c2ccc(OC(F)(F)F)cc2)CCCO1 (single isomer, unassigned) [Example 94, (anti)-pyridin-2-yl{2-[4-(trifluoromethoxy)phenyl]tetrahydrofuran-2-yl}methanol] | 55% | 3.8% | 6.44 | –
6 | OC(c1ccccn1)C1(c2ccc(OC(F)(F)F)cc2)CCCO1 (single isomer, unassigned) [Example 95, (syn)-pyridin-2-yl{2-[4-(trifluoromethoxy)phenyl]tetrahydrofuran-2-yl}methanol] | 57% | 0.61% | 5.73 | –
7 | OC(c1ccccn1)C1(c2ccccc2OC(F)(F)F)CCCO1 (single isomer, unassigned) [Example 96, (anti)-pyridin-2-yl{2-[2-(trifluoromethoxy)phenyl]tetrahydrofuran-2-yl}-methanol] | 0.68% | 0.15% | 5.91 | –
8 | OC(c1ccccn1)C1(c2ccccc2OC(F)(F)F)CCCO1 (single isomer, unassigned) [Example 97, (syn)-pyridin-2-yl{2-[2-(trifluoromethoxy)phenyl]tetrahydrofuran-2-yl}-methanol] | 6.4% | 0.16% | 6.52 | –
9 | OC(c1ccccn1)C1(c2ccc(Cl)c(Cl)c2)CCCO1 (single isomer, unassigned) [Example 98] | 7.6% | 0.020% | 6.96 | –
10 | OC(c1ccccn1)C1(c2ccc(Cl)c(Cl)c2)CCCO1 (single isomer, unassigned) [Example 99, (syn)-[2-(3,4-dichlorophenyl)tetrahydrofuran-2-yl](pyridin-2-yl)methanol] | 30% | 0.17% | 5.91 | –
11 | OC(c1ccccn1)C1(c2cccc(F)c2)CCCO1 (single isomer, unassigned) [Example 100, (anti)-[2-(3-fluorophenyl)tetrahydrofuran-2-yl](pyridin-2-yl)methanol] | 26% | 2.9% | 6.08 | –
12 | OC(c1ccccn1)C1(c2cccc(F)c2)CCCO1 (single isomer, unassigned) [Example 101, (syn)-[2-(3-fluorophenyl)tetrahydrofuran-2-yl](pyridin-2-yl)methanol] | 40% | 0.17% | < 4.70 | < 4.70
13 | OC(c1ccccn1)C1(c2cccc(Cl)c2)CCCO1 (single isomer, unassigned) [Example 104, (anti)-[2-(3-chlorophenyl)tetrahydrofuran-2-yl](pyridin-2-yl)methanol] | 15% | 0.42% | 6.55 | –
14 | OC(c1ccccn1)C1(c2cccc(Cl)c2)CCCO1 (single isomer, unassigned) [Example 105, (syn)-[2-(3-chlorophenyl)tetrahydrofuran-2-yl](pyridin-2-yl)methanol] | 42% | 0.040% | 5.12 | –
15 | OC(c1ccccn1)C1(c2cccc(C(F)(F)F)c2)CCCO1 (single isomer, unassigned) [Example 106, (anti)-pyridin-2-yl{2-[3-(trifluoromethyl)phenyl]tetrahydrofuran-2-yl}-methanol] | 3.9% | 1.6% | 6.68 | –
16 | OC(c1ccccn1)C1(c2cccc(C(F)(F)F)c2)CCCO1 (single isomer, unassigned) [Example 107, (syn)-pyridin-2-yl{2-[3-(trifluoromethyl)phenyl]tetrahydrofuran-2-yl}-methanol] | 31% | 0.23% | 5.53 | –
17 | OC(c1ccccn1)C1(c2ccc(F)c(F)c2)CCCO1 (single isomer, unassigned) [Example 108, (anti)-[2-(3,4-difluorophenyl)tetrahydrofuran-2-yl](pyridin-2-yl)methanol] | 13% | 4.9% | 6.21 | –
18 | OC(c1ccccn1)C1(c2ccc(F)c(F)c2)CCCO1 (single isomer, unassigned) [Example 109, (syn)-[2-(3,4-difluorophenyl)tetrahydrofuran-2-yl](pyridin-2-yl)methanol] | 45% | 0.74% | 5.24 | –
19 | OC1CC(c2ccc(OC(F)(F)F)cc2)(C(O)c2ccccn2)C1 (single isomer, unassigned) [Example 131] | >85% | 50% | 6.09 | 5.30 to 5.96
20 | OC1CC(c2ccc(OC(F)(F)F)cc2)(C(O)c2ccccn2)C1 (single isomer, unassigned) [Example 132] | 81% | 72% | 5.03 | –
